The supplement of paper PMC10307832

Assays:
Experiment in all cases: relative viability (nuclei count vs DMSO), 5 days (fraction); higher = more cells survive
Vemurafenib + Tozasertib = compound: CCCS(=O)(=O)Nc1ccc(F)c(C(=O)c2c[nH]c3ncc(-c4ccc(Cl)cc4)cc23)c1F [Vemurafenib] + Cc1cc(Nc2cc(N3CCN(C)CC3)nc(Sc3ccc(NC(=O)C4CC4)cc3)n2)n[nH]1 [Tozasertib] (partner 0.1 µM)
Procedure, shortened: (§1)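 Lung cancer cell lines in 1536-well plates were dosed by pin tool the day after seeding, either with one drug alone or with a fixed anchor-drug dose plus five library-drug doses (not always all listed) in √10 steps. After 5 days, cells were fixed and their nuclei stained in one step (final 0.05% Triton X-100, 1% formaldehyde, 1 ug/ml Hoechst), then counted on 4× images. Relative viability is the nuclei count in treated wells divided by that in vehicle wells. Values are medians of duplicate plates.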

Vemurafenib + Olaparib = compound: CCCS(=O)(=O)Nc1ccc(F)c(C(=O)c2c[nH]c3ncc(-c4ccc(Cl)cc4)cc23)c1F [Vemurafenib] + O=C(c1cc(Cc2n[nH]c(=O)c3ccccc23)ccc1F)N1CCN(C(=O)C2CC2)CC1 [Olaparib] (partner 8 µM)
Procedure, shortened: as §1

Alpelisib + AZD7762 = compound: Cc1nc(NC(=O)N2CCC[C@H]2C(N)=O)sc1-c1ccnc(C(C)(C)C(F)(F)F)c1 [Alpelisib] + NC(=O)Nc1cc(-c2cccc(F)c2)sc1C(=O)N[C@H]1CCCNC1 [AZD7762] (partner 0.2 µM)
Procedure, shortened: as §1

Alpelisib + Phenformin = compound: Cc1nc(NC(=O)N2CCC[C@H]2C(N)=O)sc1-c1ccnc(C(C)(C)C(F)(F)F)c1 [Alpelisib] + N=C(N)NC(=N)NCCc1ccccc1 [Phenformin] (partner 250 µM)
Procedure, shortened: as §1

## A-427
Vemurafenib + Tozasertib; first compound 0.03162 µM
  relative viability: 0.194
Vemurafenib + Tozasertib; first compound 0.1 µM
  relative viability: 0.203
Vemurafenib + Tozasertib; first compound 0.3162 µM
  relative viability: 0.238
Vemurafenib + Tozasertib; first compound 1 µM
  relative viability: 0.227
Vemurafenib + Olaparib; first compound 0.03162 µM
  relative viability: 0.71
Vemurafenib + Olaparib; first compound 0.1 µM
  relative viability: 0.663
Vemurafenib + Olaparib; first compound 1 µM
  relative viability: 0.701
Alpelisib + AZD7762; first compound 0.04 µM
  relative viability: 0.712
Alpelisib + AZD7762; first compound 0.1265 µM
  relative viability: 0.649
Alpelisib + AZD7762; first compound 0.4 µM
  relative viability: 0.72
Alpelisib + AZD7762; first compound 1.265 µM
  relative viability: 0.574
Alpelisib + AZD7762; first compound 4 µM
  relative viability: 0.617
Alpelisib + Phenformin; first compound 0.04 µM
  relative viability: 0.354
Alpelisib + Phenformin; first compound 0.1265 µM
  relative viability: 0.212
Alpelisib + Phenformin; first compound 0.4 µM
  relative viability: 0.329
Alpelisib + Phenformin; first compound 1.265 µM
  relative viability: 0.26
Alpelisib + Phenformin; first compound 4 µM
  relative viability: 0.243

## SK-LU-1
Vemurafenib + Tozasertib; first compound 0.03162 µM
  relative viability: 0.255
Vemurafenib + Tozasertib; first compound 0.1 µM
  relative viability: 0.283
Vemurafenib + Tozasertib; first compound 0.3162 µM
  relative viability: 0.294
Vemurafenib + Tozasertib; first compound 1 µM
  relative viability: 0.298
Vemurafenib + Olaparib; first compound 0.03162 µM
  relative viability: 0.368
Vemurafenib + Olaparib; first compound 0.1 µM
  relative viability: 0.418
Vemurafenib + Olaparib; first compound 0.3162 µM
  relative viability: 0.393
Vemurafenib + Olaparib; first compound 1 µM
  relative viability: 0.392
Alpelisib + Phenformin; first compound 0.04 µM
  relative viability: 0.495
Alpelisib + Phenformin; first compound 0.1265 µM
  relative viability: 0.498
Alpelisib + Phenformin; first compound 0.4 µM
  relative viability: 0.434
Alpelisib + Phenformin; first compound 1.265 µM
  relative viability: 0.408
Alpelisib + Phenformin; first compound 4 µM
  relative viability: 0.358

## PC-3 [JPC-3]
Vemurafenib + Tozasertib; first compound 0.03162 µM
  relative viability: 0.853
Vemurafenib + Tozasertib; first compound 0.3162 µM
  relative viability: 0.904
Vemurafenib + Tozasertib; first compound 1 µM
  relative viability: 0.881
Vemurafenib + Olaparib; first compound 0.3162 µM
  relative viability: 1.05
Vemurafenib + Olaparib; first compound 1 µM
  relative viability: 1.25
Alpelisib + AZD7762; first compound 0.04 µM
  relative viability: 0.808
Alpelisib + AZD7762; first compound 0.1265 µM
  relative viability: 0.755
Alpelisib + AZD7762; first compound 0.4 µM
  relative viability: 0.781
Alpelisib + AZD7762; first compound 1.265 µM
  relative viability: 0.601
Alpelisib + AZD7762; first compound 4 µM
  relative viability: 0.516
Alpelisib + Phenformin; first compound 0.04 µM
  relative viability: 0.502
Alpelisib + Phenformin; first compound 0.1265 µM
  relative viability: 0.496
Alpelisib + Phenformin; first compound 0.4 µM
  relative viability: 0.503
Alpelisib + Phenformin; first compound 1.265 µM
  relative viability: 0.454
Alpelisib + Phenformin; first compound 4 µM
  relative viability: 0.463

## ChaGo-K-1
Vemurafenib + Tozasertib; first compound 0.03162 µM
  relative viability: 0.22
Vemurafenib + Tozasertib; first compound 0.1 µM
  relative viability: 0.195
Vemurafenib + Tozasertib; first compound 0.3162 µM
  relative viability: 0.257
Vemurafenib + Tozasertib; first compound 1 µM
  relative viability: 0.204
Vemurafenib + Olaparib; first compound 0.03162 µM
  relative viability: 0.404
Vemurafenib + Olaparib; first compound 0.1 µM
  relative viability: 0.4
Vemurafenib + Olaparib; first compound 0.3162 µM
  relative viability: 0.49
Vemurafenib + Olaparib; first compound 1 µM
  relative viability: 0.382
Alpelisib + AZD7762; first compound 0.04 µM
  relative viability: 0.865
Alpelisib + AZD7762; first compound 0.1265 µM
  relative viability: 0.909
Alpelisib + AZD7762; first compound 0.4 µM
  relative viability: 0.875
Alpelisib + AZD7762; first compound 1.265 µM
  relative viability: 0.791
Alpelisib + AZD7762; first compound 4 µM
  relative viability: 0.672
Alpelisib + Phenformin; first compound 0.04 µM
  relative viability: 0.495
Alpelisib + Phenformin; first compound 0.1265 µM
  relative viability: 0.495
Alpelisib + Phenformin; first compound 0.4 µM
  relative viability: 0.453
Alpelisib + Phenformin; first compound 1.265 µM
  relative viability: 0.435
Alpelisib + Phenformin; first compound 4 µM
  relative viability: 0.346

## NCI-H2023
Vemurafenib + Tozasertib; first compound 0.03162 µM
  relative viability: 0.335
Vemurafenib + Tozasertib; first compound 0.1 µM
  relative viability: 0.241
Vemurafenib + Tozasertib; first compound 0.3162 µM
  relative viability: 0.273
Vemurafenib + Tozasertib; first compound 1 µM
  relative viability: 0.18
Vemurafenib + Olaparib; first compound 0.03162 µM
  relative viability: 0.463
Vemurafenib + Olaparib; first compound 0.1 µM
  relative viability: 0.42
Vemurafenib + Olaparib; first compound 0.3162 µM
  relative viability: 0.483
Vemurafenib + Olaparib; first compound 1 µM
  relative viability: 0.479
Alpelisib + Phenformin; first compound 0.04 µM
  relative viability: 0.404
Alpelisib + Phenformin; first compound 0.1265 µM
  relative viability: 0.408
Alpelisib + Phenformin; first compound 0.4 µM
  relative viability: 0.371
Alpelisib + Phenformin; first compound 1.265 µM
  relative viability: 0.287
Alpelisib + Phenformin; first compound 4 µM
  relative viability: 0.282

## LXF-289
Vemurafenib + Tozasertib; first compound 0.03162 µM
  relative viability: 0.195
Vemurafenib + Tozasertib; first compound 0.1 µM
  relative viability: 0.172
Vemurafenib + Tozasertib; first compound 0.3162 µM
  relative viability: 0.149
Vemurafenib + Tozasertib; first compound 1 µM
  relative viability: 0.169
Vemurafenib + Olaparib; first compound 0.03162 µM
  relative viability: 1.02
Vemurafenib + Olaparib; first compound 0.1 µM
  relative viability: 1.06
Vemurafenib + Olaparib; first compound 0.3162 µM
  relative viability: 1.09
Vemurafenib + Olaparib; first compound 1 µM
  relative viability: 1
Alpelisib + AZD7762; first compound 0.04 µM
  relative viability: 1.05
Alpelisib + AZD7762; first compound 0.1265 µM
  relative viability: 1.1
Alpelisib + AZD7762; first compound 0.4 µM
  relative viability: 1.21
Alpelisib + AZD7762; first compound 1.265 µM
  relative viability: 1.18
Alpelisib + AZD7762; first compound 4 µM
  relative viability: 1.27
Alpelisib + Phenformin; first compound 0.04 µM
  relative viability: 0.482
Alpelisib + Phenformin; first compound 0.1265 µM
  relative viability: 0.527
Alpelisib + Phenformin; first compound 0.4 µM
  relative viability: 0.513
Alpelisib + Phenformin; first compound 1.265 µM
  relative viability: 0.481
Alpelisib + Phenformin; first compound 4 µM
  relative viability: 0.482

## EBC-1
Vemurafenib + Olaparib; first compound 0.03162 µM
  relative viability: 0.451
Vemurafenib + Olaparib; first compound 0.1 µM
  relative viability: 0.657
Vemurafenib + Olaparib; first compound 0.3162 µM
  relative viability: 0.723
Vemurafenib + Olaparib; first compound 1 µM
  relative viability: 0.649

## LOU-NH91
Vemurafenib + Tozasertib; first compound 0.03162 µM
  relative viability: 0.599
Vemurafenib + Tozasertib; first compound 1 µM
  relative viability: 0.705
Vemurafenib + Olaparib; first compound 0.03162 µM
  relative viability: 0.876
Vemurafenib + Olaparib; first compound 0.1 µM
  relative viability: 0.671
Vemurafenib + Olaparib; first compound 0.3162 µM
  relative viability: 0.743
Vemurafenib + Olaparib; first compound 1 µM
  relative viability: 0.894
Alpelisib + AZD7762; first compound 0.04 µM
  relative viability: 0.735
Alpelisib + AZD7762; first compound 0.1265 µM
  relative viability: 0.608
Alpelisib + AZD7762; first compound 0.4 µM
  relative viability: 0.663
Alpelisib + AZD7762; first compound 1.265 µM
  relative viability: 0.556
Alpelisib + AZD7762; first compound 4 µM
  relative viability: 0.543
Alpelisib + Phenformin; first compound 0.04 µM
  relative viability: 0.668
Alpelisib + Phenformin; first compound 0.1265 µM
  relative viability: 0.58
Alpelisib + Phenformin; first compound 0.4 µM
  relative viability: 0.648
Alpelisib + Phenformin; first compound 1.265 µM
  relative viability: 0.525
Alpelisib + Phenformin; first compound 4 µM
  relative viability: 0.472

## PC-14
Vemurafenib + Tozasertib; first compound 0.03162 µM
  relative viability: 0.557
Vemurafenib + Tozasertib; first compound 0.3162 µM
  relative viability: 0.376
Vemurafenib + Tozasertib; first compound 1 µM
  relative viability: 0.551
Vemurafenib + Olaparib; first compound 0.03162 µM
  relative viability: 0.292
Vemurafenib + Olaparib; first compound 0.3162 µM
  relative viability: 0.304
Vemurafenib + Olaparib; first compound 1 µM
  relative viability: 0.292
Alpelisib + AZD7762; first compound 0.04 µM
  relative viability: 0.324
Alpelisib + AZD7762; first compound 0.1265 µM
  relative viability: 0.236
Alpelisib + AZD7762; first compound 0.4 µM
  relative viability: 0.448
Alpelisib + AZD7762; first compound 1.265 µM
  relative viability: 0.307
Alpelisib + AZD7762; first compound 4 µM
  relative viability: 0.35
Alpelisib + Phenformin; first compound 0.04 µM
  relative viability: 0.653
Alpelisib + Phenformin; first compound 0.1265 µM
  relative viability: 0.406
Alpelisib + Phenformin; first compound 0.4 µM
  relative viability: 0.67
Alpelisib + Phenformin; first compound 1.265 µM
  relative viability: 0.54
Alpelisib + Phenformin; first compound 4 µM
  relative viability: 0.526

## Calu-6
Vemurafenib + Olaparib; first compound 0.1 µM
  relative viability: 0.593
Vemurafenib + Olaparib; first compound 0.3162 µM
  relative viability: 0.549
Vemurafenib + Olaparib; first compound 1 µM
  relative viability: 0.471

## H3255
Vemurafenib + Tozasertib; first compound 0.03162 µM
  relative viability: 0.603
Vemurafenib + Tozasertib; first compound 0.3162 µM
  relative viability: 0.644
Vemurafenib + Tozasertib; first compound 1 µM
  relative viability: 0.619
Vemurafenib + Olaparib; first compound 0.03162 µM
  relative viability: 0.497
Vemurafenib + Olaparib; first compound 0.3162 µM
  relative viability: 0.519
Vemurafenib + Olaparib; first compound 1 µM
  relative viability: 0.556
Alpelisib + AZD7762; first compound 0.04 µM
  relative viability: 0.86
Alpelisib + AZD7762; first compound 0.1265 µM
  relative viability: 0.88
Alpelisib + AZD7762; first compound 0.4 µM
  relative viability: 1.32
Alpelisib + AZD7762; first compound 1.265 µM
  relative viability: 0.799
Alpelisib + AZD7762; first compound 4 µM
  relative viability: 0.864
Alpelisib + Phenformin; first compound 0.04 µM
  relative viability: 0.352
Alpelisib + Phenformin; first compound 0.1265 µM
  relative viability: 0.375
Alpelisib + Phenformin; first compound 0.4 µM
  relative viability: 0.336
Alpelisib + Phenformin; first compound 1.265 µM
  relative viability: 0.25
Alpelisib + Phenformin; first compound 4 µM
  relative viability: 0.335

## SW 900
Vemurafenib + Tozasertib; first compound 0.03162 µM
  relative viability: 0.455
Vemurafenib + Tozasertib; first compound 0.1 µM
  relative viability: 0.557
Vemurafenib + Tozasertib; first compound 0.3162 µM
  relative viability: 0.585
Vemurafenib + Tozasertib; first compound 1 µM
  relative viability: 0.435
Vemurafenib + Olaparib; first compound 0.03162 µM
  relative viability: 0.812
Vemurafenib + Olaparib; first compound 0.1 µM
  relative viability: 0.607
Vemurafenib + Olaparib; first compound 0.3162 µM
  relative viability: 0.939
Vemurafenib + Olaparib; first compound 1 µM
  relative viability: 0.994
Alpelisib + AZD7762; first compound 0.04 µM
  relative viability: 0.629
Alpelisib + AZD7762; first compound 0.4 µM
  relative viability: 0.545
Alpelisib + AZD7762; first compound 1.265 µM
  relative viability: 0.546
Alpelisib + AZD7762; first compound 4 µM
  relative viability: 0.519
Alpelisib + Phenformin; first compound 0.04 µM
  relative viability: 0.561
Alpelisib + Phenformin; first compound 0.1265 µM
  relative viability: 0.525
Alpelisib + Phenformin; first compound 0.4 µM
  relative viability: 0.449
Alpelisib + Phenformin; first compound 1.265 µM
  relative viability: 0.474
Alpelisib + Phenformin; first compound 4 µM
  relative viability: 0.347
